Test results: PubChem BioAssay (NCI)
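48-hour exposure; five concentrations; linearly interpolated endpoints. The concentration for full growth arrest is given as TGI.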 Where a SMILES comes first, the peptide text is derived from it. The star is where a group is joined. Boc = CC(C)(C)OC(=O)*

Key:
Experiment in all cases: NCI-60 cell line screen, 48 h
KM12 colon = test system: KM12 colon
NCI-H460 lung = test system: NCI-H460 lung
HOP-62 NSCLC = test system: HOP-62 NSCLC
U251 CNS = test system: U251 CNS
SF-539 CNS = test system: SF-539 CNS
NCI-H522 lung = test system: NCI-H522 lung
NCI-H23 lung = test system: NCI-H23 lung
UACC-62 melanoma = test system: UACC-62 melanoma
786-0 renal = test system: 786-0 renal
OVCAR-4 ovarian = test system: OVCAR-4 ovarian
HCC-2998 colon = test system: HCC-2998 colon
CCRF-CEM leukemia = test system: CCRF-CEM leukemia
NCI-H226 lung = test system: NCI-H226 lung
K-562 leukemia = test system: K-562 leukemia
LOX IMVI melanoma = test system: LOX IMVI melanoma
UO-31 renal = test system: UO-31 renal
MALME-3M melanoma = test system: MALME-3M melanoma
HT29 colon = test system: HT29 colon
DU-145 prostate = test system: DU-145 prostate
MCF7 breast = test system: MCF7 breast
UACC-257 melanoma = test system: UACC-257 melanoma
CAKI-1 renal = test system: CAKI-1 renal
SW-620 colon = test system: SW-620 colon
OVCAR-3 ovarian = test system: OVCAR-3 ovarian
PC-3 prostate = test system: PC-3 prostate
HCT-15 colon = test system: HCT-15 colon
T-47D breast = test system: T-47D breast
EKVX NSCLC = test system: EKVX NSCLC
TK-10 renal = test system: TK-10 renal
BT-549 breast = test system: BT-549 breast
A498 renal = test system: A498 renal
SK-MEL-28 melanoma = test system: SK-MEL-28 melanoma
COLO 205 colon = test system: COLO 205 colon
OVCAR-5 ovarian = test system: OVCAR-5 ovarian
M14 melanoma = test system: M14 melanoma
SF-295 CNS = test system: SF-295 CNS
HS 578T breast = test system: HS 578T breast
HOP-92 NSCLC = test system: HOP-92 NSCLC
MDA-N = test system: MDA-N
RPMI-8226 leukemia = test system: RPMI-8226 leukemia
SNB-19 CNS = test system: SNB-19 CNS
HL-60(TB) leukemia = test system: HL-60(TB) leukemia
OVCAR-8 ovarian = test system: OVCAR-8 ovarian
A549 NSCLC = test system: A549 NSCLC
MOLT-4 leukemia = test system: MOLT-4 leukemia
SK-MEL-5 melanoma = test system: SK-MEL-5 melanoma
NCI/ADR-RES ovarian = test system: NCI/ADR-RES ovarian
MDA-MB-231 breast = test system: MDA-MB-231 breast
SN12C renal = test system: SN12C renal
IGROV1 ovarian = test system: IGROV1 ovarian
HCT-116 colon = test system: HCT-116 colon
SK-MEL-2 melanoma = test system: SK-MEL-2 melanoma
SF-268 CNS = test system: SF-268 CNS
RXF 393 renal = test system: RXF 393 renal
SK-OV-3 ovarian = test system: SK-OV-3 ovarian
MDA-MB-435 = test system: MDA-MB-435
ACHN renal = test system: ACHN renal
SNB-75 CNS = test system: SNB-75 CNS
SR leukemia = test system: SR leukemia

## COc1ccc2[nH]c3c([N+](=O)[O-])ccc(Cl)c3c(=O)c2c1
KM12 colon
  TGI: > 73.4 µM
NCI-H460 lung
  TGI: > 95.4 µM
HOP-62 NSCLC
  TGI: 73.6 µM
U251 CNS
  TGI: > 64.1 µM
SF-539 CNS
  TGI: 34.2 µM
NCI-H522 lung
  TGI: 36.9 µM
NCI-H23 lung
  TGI: > 52.8 µM
UACC-62 melanoma
  TGI: 34.5 µM
786-0 renal
  TGI: 33.7 µM
OVCAR-4 ovarian
  TGI: 28.7 µM
HCC-2998 colon
  TGI: > 71.2 µM
CCRF-CEM leukemia
  TGI: 10.2 µM
NCI-H226 lung
  TGI: > 100 µM
K-562 leukemia
  TGI: 13.2 µM
LOX IMVI melanoma
  TGI: 34.5 µM
UO-31 renal
  TGI: 35.5 µM
MALME-3M melanoma
  TGI: 40.4 µM
HT29 colon
  TGI: 32.2 µM
DU-145 prostate
  TGI: > 100 µM
MCF7 breast
  TGI: > 84.8 µM
UACC-257 melanoma
  TGI: 16.5 µM
CAKI-1 renal
  TGI: 49.5 µM
SW-620 colon
  TGI: 42.8 µM
OVCAR-3 ovarian
  TGI: 31.7 µM
PC-3 prostate
  TGI: 52.1 µM
HCT-15 colon
  TGI: 40.8 µM
T-47D breast
  TGI: > 84.7 µM
EKVX NSCLC
  TGI: > 100 µM
TK-10 renal
  TGI: > 56.6 µM
BT-549 breast
  TGI: 32.1 µM
A498 renal
  TGI: > 100 µM
SK-MEL-28 melanoma
  TGI: 98.1 µM
COLO 205 colon
  TGI: 32.7 µM
OVCAR-5 ovarian
  TGI: > 58 µM
M14 melanoma
  TGI: 35.9 µM
SF-295 CNS
  TGI: > 100 µM
HS 578T breast
  TGI: > 100 µM
HOP-92 NSCLC
  TGI: 29.7 µM
MDA-N
  TGI: > 55.6 µM
RPMI-8226 leukemia
  TGI: 45.4 µM
SNB-19 CNS
  TGI: > 80.9 µM
HL-60(TB) leukemia
  TGI: 9.84 µM
OVCAR-8 ovarian
  TGI: > 74 µM
A549 NSCLC
  TGI: > 100 µM
MOLT-4 leukemia
  TGI: 12.8 µM
SK-MEL-5 melanoma
  TGI: 55.2 µM
NCI/ADR-RES ovarian
  TGI: > 71.2 µM
MDA-MB-231 breast
  TGI: 32.8 µM
SN12C renal
  TGI: 55.1 µM
IGROV1 ovarian
  TGI: 18.6 µM
HCT-116 colon
  TGI: 27.4 µM
SK-MEL-2 melanoma
  TGI: 58.5 µM
SF-268 CNS
  TGI: 53.6 µM
RXF 393 renal
  TGI: 32.2 µM
SK-OV-3 ovarian
  TGI: > 100 µM
MDA-MB-435
  TGI: > 55.8 µM
ACHN renal
  TGI: 29.3 µM

## CN(C)Cc1cc(C(=O)/C=C/c2ccc(Br)cc2)cc(CN(C)C)c1O
KM12 colon
  TGI: 5.88 µM
NCI-H460 lung
  TGI: 21.9 µM
HOP-62 NSCLC
  TGI: 17.2 µM
U251 CNS
  TGI: 33.5 µM
SF-539 CNS
  TGI: 31.9 µM
NCI-H522 lung
  TGI: 12.6 µM
NCI-H23 lung
  TGI: 33 µM
786-0 renal
  TGI: 19 µM
OVCAR-4 ovarian
  TGI: 28.8 µM
HCC-2998 colon
  TGI: 27.8 µM
CCRF-CEM leukemia
  TGI: 26.7 µM
NCI-H226 lung
  TGI: 35.9 µM
K-562 leukemia
  TGI: 10.8 µM
LOX IMVI melanoma
  TGI: 5.43 µM
UO-31 renal
  TGI: 9.04 µM
MALME-3M melanoma
  TGI: 34.6 µM
HT29 colon
  TGI: 12.5 µM
SNB-75 CNS
  TGI: 35.3 µM
DU-145 prostate
  TGI: 25.1 µM
UACC-257 melanoma
  TGI: 19.5 µM
CAKI-1 renal
  TGI: 6.34 µM
SW-620 colon
  TGI: 16 µM
OVCAR-3 ovarian
  TGI: 17 µM
PC-3 prostate
  TGI: 10.2 µM
HCT-15 colon
  TGI: 25.3 µM
T-47D breast
  TGI: 37.9 µM
EKVX NSCLC
  TGI: 36.3 µM
TK-10 renal
  TGI: 27.4 µM
A498 renal
  TGI: 30.4 µM
SK-MEL-28 melanoma
  TGI: 25.3 µM
COLO 205 colon
  TGI: 3.28 µM
OVCAR-5 ovarian
  TGI: 34 µM
M14 melanoma
  TGI: 22.1 µM
SR leukemia
  TGI: 50.6 µM
SF-295 CNS
  TGI: 19 µM
HS 578T breast
  TGI: 45.1 µM
MDA-N
  TGI: 9.81 µM
RPMI-8226 leukemia
  TGI: 26.8 µM
SNB-19 CNS
  TGI: 26.6 µM
HL-60(TB) leukemia
  TGI: 20.5 µM
OVCAR-8 ovarian
  TGI: 20.8 µM
A549 NSCLC
  TGI: 26.2 µM
MOLT-4 leukemia
  TGI: 19.6 µM
SK-MEL-5 melanoma
  TGI: 28.5 µM
NCI/ADR-RES ovarian
  TGI: > 100 µM
MDA-MB-231 breast
  TGI: 12.1 µM
SN12C renal
  TGI: 14.8 µM
IGROV1 ovarian
  TGI: 26.3 µM
HCT-116 colon
  TGI: 19.9 µM
SF-268 CNS
  TGI: 50.3 µM
RXF 393 renal
  TGI: 17.1 µM
MDA-MB-435
  TGI: 37.9 µM
ACHN renal
  TGI: 15 µM

## C/C(=N/NC(=S)N(C)CCc1ccccn1)c1cnccn1
KM12 colon
  TGI: 19.4 µM
NCI-H460 lung
  TGI: 13 µM
HOP-62 NSCLC
  TGI: 9.62 µM
U251 CNS
  TGI: 12.3 µM
SF-539 CNS
  TGI: 28 µM
NCI-H522 lung
  TGI: 20.8 µM
NCI-H23 lung
  TGI: 13 µM
786-0 renal
  TGI: 6.8 µM
OVCAR-4 ovarian
  TGI: 5.93 µM
HCC-2998 colon
  TGI: 33.8 µM
CCRF-CEM leukemia
  TGI: > 68.2 µM
NCI-H226 lung
  TGI: 0.0122 µM
K-562 leukemia
  TGI: > 100 µM
UO-31 renal
  TGI: 0.272 µM
MALME-3M melanoma
  TGI: 5.11 µM
HT29 colon
  TGI: 11.9 µM
SNB-75 CNS
  TGI: 18.4 µM
DU-145 prostate
  TGI: > 32 µM
MCF7 breast
  TGI: 30.6 µM
UACC-257 melanoma
  TGI: 34.6 µM
CAKI-1 renal
  TGI: 10.5 µM
SW-620 colon
  TGI: 32.2 µM
OVCAR-3 ovarian
  TGI: 19 µM
PC-3 prostate
  TGI: 16.1 µM
HCT-15 colon
  TGI: 29 µM
EKVX NSCLC
  TGI: 12.8 µM
TK-10 renal
  TGI: 14.8 µM
BT-549 breast
  TGI: 10.2 µM
A498 renal
  TGI: > 100 µM
SK-MEL-28 melanoma
  TGI: 40.3 µM
COLO 205 colon
  TGI: 21.8 µM
OVCAR-5 ovarian
  TGI: 22 µM
M14 melanoma
  TGI: 7.37 µM
SR leukemia
  TGI: > 100 µM
SF-295 CNS
  TGI: 4.65 µM
HS 578T breast
  TGI: 53.9 µM
HOP-92 NSCLC
  TGI: 21.2 µM
MDA-N
  TGI: 20.9 µM
RPMI-8226 leukemia
  TGI: 26.1 µM
SNB-19 CNS
  TGI: 19 µM
HL-60(TB) leukemia
  TGI: > 100 µM
OVCAR-8 ovarian
  TGI: 0.385 µM
A549 NSCLC
  TGI: 11.5 µM
MOLT-4 leukemia
  TGI: > 71.1 µM
SK-MEL-5 melanoma
  TGI: 17.8 µM
MDA-MB-231 breast
  TGI: 21.2 µM
SN12C renal
  TGI: 10 µM
HCT-116 colon
  TGI: 18 µM
SK-MEL-2 melanoma
  TGI: 26.9 µM
SF-268 CNS
  TGI: 14.9 µM
RXF 393 renal
  TGI: 13.9 µM
SK-OV-3 ovarian
  TGI: 0.947 µM
MDA-MB-435
  TGI: 35.7 µM
ACHN renal
  TGI: 3.51 µM

## COC(=O)C(Cc1c[nH]c2ccccc12)NC(=O)C(Cc1c[nH]c2ccccc12)NC(=O)C(Cc1c[nH]c2ccccc12)NC(=O)OC(C)(C)C (stereo not drawn) (Boc-Trp-Trp-Trp-OMe; configuration not given here)
KM12 colon
  TGI: 38.2 µM
NCI-H460 lung
  TGI: 36 µM
HOP-62 NSCLC
  TGI: 32.7 µM
U251 CNS
  TGI: 32.4 µM
NCI-H23 lung
  TGI: 31.8 µM
UACC-62 melanoma
  TGI: 38.3 µM
786-0 renal
  TGI: 31.7 µM
HCC-2998 colon
  TGI: 32.9 µM
NCI-H226 lung
  TGI: 37.1 µM
K-562 leukemia
  TGI: > 100 µM
UO-31 renal
  TGI: > 100 µM
MALME-3M melanoma
  TGI: > 100 µM
HT29 colon
  TGI: 35.9 µM
SNB-75 CNS
  TGI: 42 µM
UACC-257 melanoma
  TGI: > 100 µM
SW-620 colon
  TGI: 40.7 µM
PC-3 prostate
  TGI: 30 µM
HCT-15 colon
  TGI: 41.4 µM
T-47D breast
  TGI: 29.4 µM
EKVX NSCLC
  TGI: > 100 µM
TK-10 renal
  TGI: 46.7 µM
BT-549 breast
  TGI: 33.8 µM
A498 renal
  TGI: > 100 µM
SK-MEL-28 melanoma
  TGI: 33.8 µM
COLO 205 colon
  TGI: 42.7 µM
OVCAR-5 ovarian
  TGI: 32 µM
M14 melanoma
  TGI: > 100 µM
HS 578T breast
  TGI: 48.4 µM
HOP-92 NSCLC
  TGI: 33 µM
MDA-N
  TGI: 40.3 µM
RPMI-8226 leukemia
  TGI: 58.6 µM
SNB-19 CNS
  TGI: 47 µM
HL-60(TB) leukemia
  TGI: 47.4 µM
OVCAR-8 ovarian
  TGI: 38.8 µM
A549 NSCLC
  TGI: > 100 µM
MOLT-4 leukemia
  TGI: 39.9 µM
SK-MEL-5 melanoma
  TGI: > 100 µM
MDA-MB-231 breast
  TGI: 93.1 µM
SN12C renal
  TGI: 39.4 µM
IGROV1 ovarian
  TGI: 40.5 µM
HCT-116 colon
  TGI: 29.8 µM
SK-MEL-2 melanoma
  TGI: 35.8 µM
RXF 393 renal
  TGI: 21 µM
ACHN renal
  TGI: 32.5 µM
